From patent publication US20170066759A1, “AROMATIC 5-MEMBERED HETEROCYCLIC DERIVATIVE HAVING TRPV4-INHIBITING ACTIVITY” (Shionogi & Co., Ltd., priority 2012, published 2017) come the findings set out here.

Broadly, the IC50 is the midpoint of a concentration-inhibition curve.

Each structure is given as a SMILES string. Some results are limits rather than exact numbers.

The assay deals with T1, human TRPV4 (hTRPV4/CHO cells) (Homo sapiens, UniProt Q9HBA0).
T1 construct: expressed in transfected cells; host or cells: CHO-K1
T1 sequence (Q9HBA0 whole entry): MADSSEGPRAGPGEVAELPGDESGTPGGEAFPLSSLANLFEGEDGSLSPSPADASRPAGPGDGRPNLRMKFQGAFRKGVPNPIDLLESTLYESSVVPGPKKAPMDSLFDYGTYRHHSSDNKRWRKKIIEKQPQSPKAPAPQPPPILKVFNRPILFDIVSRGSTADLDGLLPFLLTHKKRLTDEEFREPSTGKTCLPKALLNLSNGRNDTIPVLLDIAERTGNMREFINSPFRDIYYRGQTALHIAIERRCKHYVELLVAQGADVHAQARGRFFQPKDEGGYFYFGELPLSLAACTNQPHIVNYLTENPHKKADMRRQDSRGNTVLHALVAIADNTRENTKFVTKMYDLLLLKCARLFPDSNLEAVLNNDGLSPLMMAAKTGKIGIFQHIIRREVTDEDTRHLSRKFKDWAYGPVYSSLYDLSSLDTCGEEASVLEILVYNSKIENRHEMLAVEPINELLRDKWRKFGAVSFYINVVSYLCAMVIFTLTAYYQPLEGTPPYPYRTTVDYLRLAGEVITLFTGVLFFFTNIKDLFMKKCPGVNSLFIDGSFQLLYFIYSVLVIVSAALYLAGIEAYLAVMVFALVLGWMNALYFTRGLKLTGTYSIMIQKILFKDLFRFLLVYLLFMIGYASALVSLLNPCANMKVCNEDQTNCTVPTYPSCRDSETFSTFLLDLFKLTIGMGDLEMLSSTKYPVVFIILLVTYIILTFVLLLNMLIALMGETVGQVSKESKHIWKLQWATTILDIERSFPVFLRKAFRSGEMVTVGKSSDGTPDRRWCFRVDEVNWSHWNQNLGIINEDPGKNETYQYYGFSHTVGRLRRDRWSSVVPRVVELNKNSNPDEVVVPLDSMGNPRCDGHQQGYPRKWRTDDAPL
The assay can be described thus: Test Example 1: TRPV4 inhibitory activity (IC50 value), 4α-PDD stimulation, Fluo4 calcium fluorescence (FLIPR TETRA). In kind it is cell-based. The conditions noted are these: Test Example 1, 4α-PDD stimulation, read-out: Test 1 IC50.
For `Cc1nc(C)c(-c2csc(NCC3Cc4ccccc4C3)n2)s1` [II-49], the IC50 was under 0.1 µM.

For `NC(=O)OCCc1nc(CO)sc1-c1csc(NC(=O)Cc2ccc(S(=O)(=O)C(F)(F)F)cc2)n1` [Compound I-370], the IC50 was under 0.1 µM.

Consider `O=C(Nc1nc(-c2sc(CO)nc2CO)cs1)C1CN(c2ccccc2Cl)C1` [Compound I-342], for which the IC50 lay within 0.1 to 1 µM.

On to `Cc1nc(C)c(-c2csc(NC(=O)c3cccc(-c4ccccc4)n3)n2)s1` [Compound I-296], for which the IC50 is 1 to 8 µM. For the compound `Cc1nc(C(=O)NCCN(C)C)sc1-c1csc(NC(=O)Cc2c(F)cccc2F)n1` [Compound I-126], the IC50 was 1 to 8 µM. As to `CC(C)OC(=O)N1C[C@H](c2ccccc2)C[C@H]1C(=O)Nc1nc(-c2sc(CO)nc2CO)cs1` [Compound I-344], the IC50 fell in the range of 0.1 to 1 µM.

With `Cc1nc(C)c(-c2csc(NC(=O)C3CN(c4ncc(C(F)(F)F)cn4)C3)n2)s1` [Compound I-278], the IC50 was under 0.1 µM.

As to `Cc1nc(C(=O)NC#N)sc1-c1csc(NC(=O)Cc2c(F)cccc2F)n1` [Compound I-108], the IC50 lay within 1 to 8 µM. Regarding `Cc1nc(CO)sc1-c1csc(NC(=O)C2CC(N3CCC(F)(F)C3)C2)n1` (stereo not drawn) [Compound I-362], the IC50 fell in the range of 1 to 8 µM. For `Cc1nc(CCO)sc1-c1csc(NC(=O)Cc2ccc(S(=O)(=O)C(F)(F)F)cc2)n1` [Compound I-437], the IC50 was under 0.1 µM. As to `Cc1nc(CO)sc1-c1csc(NC(=O)C2CCN(c3ccc(Cl)cc3)C2)n1` (stereo not drawn) [Compound I-204], the IC50 is under 0.1 µM. Take `Cc1nc(C)c(-c2csc(NC(=O)Cc3ccc(S(=O)(=O)N(C)c4ccc(C#N)cc4)cc3)n2)s1` [Compound I-163]: the IC50 is under 0.1 µM. In the case of `CC(O)c1nc(CO)c(-c2csc(NC(=O)Cc3ccc(S(=O)(=O)C(F)(F)F)cc3)n2)s1` (racemic) [Compound I-500], the IC50 was 0.1 to 1 µM. Take `Cc1nc(C)c(-c2csc(NC(=O)C3CN(S(=O)(=O)c4ccc(Cl)cc4Cl)C3)n2)s1` [Compound I-503]: the IC50 was under 0.1 µM. With `Cc1nc(CO)sc1-c1csc(NC(=O)[C@H]2C[C@@H](F)C2)n1` [Compound I-203] the figure was 1 to 8 µM; with `Cc1nc(CO)sc1-c1csc(NC(=O)C2CN(c3ncc(C(F)(F)F)cn3)C2)n1` [Compound I-307], under 0.1 µM. With `O=C(Nc1nc(-c2sc(CO)nc2CO)cs1)C1CN(c2ccc(F)cc2)C1` [Compound I-372] the figure was 0.1 to 1 µM; with `Cc1nc(C)c(-c2csc(NC(=O)[C@@H]3C[C@@H](N4CCC(c5ccccc5)CC4)CN3)n2)s1` [Compound I-274], 1 to 8 µM. With `Cc1nc(C)c(-c2csc(NC(=O)C3(CC(=O)OC(C)(C)C)CN(c4ccc(C(F)(F)F)cc4)C3)n2)s1` (racemic) [Compound I-519], the IC50 is under 0.1 µM. In the case of `COCc1nc(C)c(-c2csc(NC(=O)Cc3ccc(S(=O)(=O)C(F)(F)F)cc3)n2)s1` [Compound I-459], the IC50 lay within 0.1 to 1 µM.

Take `O=C(Nc1nc(-c2sc(CO)nc2CO)cs1)C1CCC(C(F)(F)F)CC1` (stereo not drawn) [Compound I-253]: the IC50 was 0.1 to 1 µM. `Cc1nc(CO)sc1-c1csc(NC(=O)[C@@H]2C[C@@H](c3ccccc3)CN2C(=O)C(F)(F)F)n1` [Compound I-290]: the IC50 is under 0.1 µM.

Regarding `Cc1nc(C)c(-c2csc(C(=O)NCc3cccc(F)c3)n2)s1` [II-2], the IC50 lay within 1 to 8 µM. As for `Cc1nc(C)c(-c2csc(NC(=O)[C@@H]3C[C@H](c4ccccc4)CN3C(=O)OC(C)(C)C)n2)s1` [Compound I-246], the IC50 was under 0.1 µM.

As to `Cc1nc(C)c(-c2csc(NC(=O)C3CN(S(=O)(=O)c4ccc(C(F)(F)F)cc4)C3)n2)s1` [Compound I-264], the IC50 was under 0.1 µM. `Cc1nc(C)c(-c2csc(NC(=O)[C@@H]3C[C@@H](Oc4ccccc4)CN3C(=O)OC(C)(C)C)n2)s1` [Compound I-242]: the half-inhibitory concentration (IC50) is under 0.1 µM.

As to `Cc1nc(C)c(-c2csc(NC(=O)C3CCCN(S(=O)(=O)c4ccccc4)C3)n2)s1` (stereo not drawn) [Compound I-194], the IC50 was 1 to 8 µM. With `Cc1nc(C)c(-c2nc(NC(=O)Cc3c(F)cccc3F)sc2CO)s1` [Compound I-74] the figure was 1 to 8 µM; with `Cc1nc(C)c(-c2csc(NC(=O)Cc3ccc(S(=O)(=O)C(F)(F)F)cc3)n2)s1` [Compound I-117], 0.1 to 1 µM; with `Cc1nc(C)c(-c2csc(NC(=O)[C@H](CCc3ccccc3)NC(=O)OC(C)(C)C)n2)s1` [Compound I-266], 0.1 to 1 µM. For the compound `Cc1nc(C)c(-c2csc(NC3CCCCC3)n2)s1` [II-37], the IC50 is under 0.1 µM.

As for `Cc1nc(C)c(-c2csc(NC(=O)[C@@H]3C[C@@H](c4ccccc4)CN3CC(F)(F)F)n2)s1` [Compound I-292], the IC50 was under 0.1 µM.

In the case of `O=C(Cc1ccc(S(=O)(=O)C(F)(F)F)cc1)Nc1nc(-c2sc(CO)nc2CO)cs1` [Compound I-174], the IC50 is under 0.1 µM. As to `Cc1nc(C)c(-c2csc(NC(=O)Cn3cc(-c4ccccc4S(C)(=O)=O)cn3)n2)s1` [Compound I-166], the IC50 is 0.1 to 1 µM. Regarding `Cc1nc(C)c(-c2csc(NC(=O)Cc3ccc(S(C)(=O)=O)cc3F)n2)s1` [Compound I-92], the half-maximal inhibitory concentration (IC50) lay in the range of 0.1 to 1 µM. `Cc1nc(C)c(-c2csc(NC(=O)C3CN(c4ccc(C(F)(F)F)nn4)C3)n2)s1` [Compound I-284]: the IC50 fell in the range of 0.1 to 1 µM. Turning to `Cc1nc(C)c(-c2csc(Nc3cccnc3)n2)s1` [II-40], the IC50 lay within 0.1 to 1 µM.

Consider `COc1cc(CC(=O)Nc2nc(-c3sc(C)nc3C)cs2)cc(C(=O)NC(C(C)C)C(F)(F)F)c1` (racemic) [Compound I-527], for which the IC50 was under 0.1 µM.

On to `Cc1nc(C(O)CC(=O)O)sc1-c1csc(NC(=O)Cc2c(F)cccc2F)n1` (stereo not drawn) [Compound I-135], for which the IC50 was in the range of 1 to 8 µM. With `Cc1nc(C)c(-c2csc(NC(=O)[C@@H]3C[C@@H](N4CCC(c5ccccc5)CC4)CN3C(=O)C(F)(F)F)n2)s1` [Compound I-276] the figure was under 0.1 µM. With `COCCOc1nc(C)c(-c2csc(NC(=O)Cc3ccc(S(=O)(=O)C(F)(F)F)cc3)n2)s1` [Compound I-445] the figure was 1 to 8 µM; with `Cc1nc(C)c(-c2csc(CCOc3ccc(Br)cc3)n2)s1` [II-4], 1 to 8 µM; with `Cc1nc(C)c(-c2csc(NC(=O)Cc3cccc(NC(=O)C(C)C)c3)n2)s1` [Compound I-415], 0.1 to 1 µM. With `COc1cc(CC(=O)Nc2nc(-c3sc(C)nc3C)cs2)cc(C(=O)NC(c2ccccc2)C(F)(F)F)c1` (stereo not drawn) [Compound I-504], the IC50 is under 0.1 µM. As for `Cc1nc(C)c(-c2csc(NC(=O)C3CN(Cc4cccc(C(F)(F)F)c4)C3)n2)s1` [Compound I-262], the IC50 was under 0.1 µM. Turning to `Cc1nc(C)c(-c2csc(NC(=O)Cc3ccccc3C#N)n2)s1` [Compound I-121], the IC50 fell in the range of 0.1 to 1 µM.

As to `O=C(Nc1nc(-c2sc(CO)nc2CO)cs1)[C@H]1C[C@H](F)C1` [Compound I-248], the IC50 fell in the range of 1 to 8 µM. Turning to `Cc1nc(COCC(F)(F)F)sc1-c1csc(NC(=O)Cc2ccc(S(=O)(=O)C(F)(F)F)cc2)n1` [Compound I-460], the IC50 was 1 to 8 µM. `Cc1nc(C)c(-c2csc(NC(=O)C3CN(c4ccccc4C(F)(F)F)C3)n2)s1` [Compound I-280]: the IC50 was under 0.1 µM.

As for `Cc1nc(C)c(-c2csc(NCCOc3ccccc3)n2)s1` [II-47], the IC50 was 0.1 to 1 µM. Regarding `Cc1nc(C)c(-c2csc(NC(=O)N3CC(F)C3)n2)s1` [Compound I-90], the IC50 lay in the range of 1 to 8 µM. For `Cc1nc(CO)sc1-c1csc(NC(=O)C2CCN(S(=O)(=O)C(F)(F)F)C2)n1` (stereo not drawn) [Compound I-214], the IC50 was 0.1 to 1 µM. `Cc1nc(C)c(-c2csc(NC(=O)C3CN(c4ccc(-c5ccccc5)nn4)C3)n2)s1` [Compound I-285]: the IC50 lay within 0.1 to 1 µM.

`Cc1nc(C)c(-c2csc(NC(=O)[C@@H]3C[C@@H](c4ccccc4)CN3C(=O)C(F)(F)F)n2)s1` [Compound I-218]: the IC50 is under 0.1 µM. Regarding `Cc1nc(C)c(-c2csc(NC(=O)C3CC4(C3)CC(F)(F)C4)n2)s1` [Compound I-470], the IC50 was under 0.1 µM. With `CC(=O)NC(C)c1nc(CO)sc1-c1csc(NC(=O)Cc2ccc(S(=O)(=O)C(F)(F)F)cc2)n1` (racemic) [Compound I-472] the figure was 1 to 8 µM; with `Cc1nc(C)c(-c2nc(NC(=O)Cc3c(F)cccc3F)sc2-c2cccc(N(C)C)c2)s1` [Compound I-68], 1 to 8 µM. On to `Cc1nc(C)c(-c2csc(NC(=O)Cc3cccc(C(=O)N[C@@H](c4ccccc4)C(F)(F)F)c3)n2)s1` [Compound I-490], for which the IC50 was under 0.1 µM.

As to `Cc1nc(CO)sc1-c1csc(NC(=O)C2CC2(F)F)n1` (stereo not drawn) [Compound I-173], the IC50 fell in the range of 0.1 to 1 µM. With `Cc1nc(C)c(-c2csc(NC(=O)Cc3ccc(S(=O)(=O)N(C)c4cccnc4)cc3)n2)s1` [Compound I-165] the figure was 0.1 to 1 µM; with `NC(=O)c1nc(CO)c(-c2csc(NC(=O)C3CN(Cc4ccccc4C(F)(F)F)C3)n2)s1` [Compound I-322], 0.1 to 1 µM. As for `Cc1nc(CO)sc1-c1csc(NC(=O)[C@H]2C[C@@H](NCc3ccc(C(F)(F)F)cc3)C2)n1` [Compound I-319], the IC50 lay in the range of 0.1 to 1 µM.

`Cc1nc(CO)oc1-c1csc(NC(=O)Cn2cc(C(F)(F)F)cn2)n1` [Compound I-419]: the IC50 was in the range of 1 to 8 µM. With `O=C(Nc1nc(-c2sc(CO)nc2CCCN2CCOCC2)cs1)C1CN(c2ccc(C(F)(F)F)cc2)C1` [Compound I-352] the figure was under 0.1 µM; with `CCOC(=O)C(C)(C)N1CC(C(=O)Nc2nc(-c3sc(C)nc3C)cs2)C1` [Compound I-279], 1 to 8 µM; with `Cc1nc(C)c(-c2csc(NC(=O)CN3CCC[C@@H](c4ccccc4)C3)n2)s1` [Compound I-183], 0.1 to 1 µM. For `COc1ccccc1CC(=O)Nc1nc(-c2sc(C)nc2C)cs1` [Compound I-99], the IC50 was under 0.1 µM. In the case of `Cc1nc(C)c(-c2csc(NC(=O)Cn3cc(Br)cn3)n2)s1` [Compound I-132], the IC50 is under 0.1 µM.

Turning to `Cc1nc(C)c(-c2csc(NC(=O)C3CC(C(C)(C)C)=NO3)n2)s1` (stereo not drawn) [Compound I-205], the IC50 lay in the range of 0.1 to 1 µM.
